Assays:
[1] = system: human myelomonocytic leukemia cells MV-4-11 [人髓性单核细胞白血病细胞 MV-4-11]; assay: MTT proliferation inhibition, MV4-11 cells, 72 h; type: cell-based
[2] = system: human liver cancer cells HEPG-2 [人肝癌细胞HEPG-2]; assay: MTT proliferation inhibition, HEPG-2 cells, 72 h; type: cell-based; settings: 0.625-20 μg/ml
[3] = system: human large cell lung cancer cells H460 [人大细胞肺癌细胞 H460]; assay: MTT proliferation inhibition, H460 cells, 72 h; type: cell-based
[4] = system: human cervical cancer cells HELA [人宫颈癌细胞HELA]; assay: MTT proliferation inhibition, HELA cells, 72 h; type: cell-based; settings: within the measured range (0.625-20 μg/ml)
[5] = system: human diffuse large B lymphoma cells TMD-8 [人弥漫大B淋巴瘤细胞TMD-8]; assay: MTT proliferation inhibition, TMD-8 cells, 72 h; type: cell-based
[6] = Water solubility (statement in words); type: physicochemical
[7] = system: human acute myeloid leukemia cells MOLM-13 [人急性髓系白血病细胞MOLM-13]; assay: MTT proliferation inhibition, MOLM-13 cells, 72 h; type: cell-based

IC50 ([1]; MTT): 1.239 µg/mL
IC50 ([3]; MTT): 1.131 µg/mL
IC50 ([5]; MTT): 1.388 µg/mL
water solubility [6]: 水溶性较差
IC50 ([7]; MTT): 1.9 µg/mL
Substance: 呋喃并[2 ' ',3 ' ':5 ' ',6 ' ']萘并[1 ' ',2'':7 ',8 ']环十二烷[1 ',2':5,6]萘并[1,2-b]呋喃-10,11,21,22-四酮,6,7,8,9,19,20-六氢-1,12,17-三甲基-6-亚甲基-,(17E)- [四氢甘西鼠尾新酮A]
inhibition, concentration dependence ([1]; Figure 3, 0.625-20 μg/ml): 呈剂量依赖性
in vitro inhibitory activity [2]: 体外抑制活性较弱
inhibition, concentration dependence ([3]; Figure 3, 0.625-20 μg/ml): 呈剂量依赖性
in vitro inhibitory activity [4]: 在测量范围内未发现抑制活性
inhibition, concentration dependence ([5]; Figure 3, 0.625-20 μg/ml): 呈剂量依赖性
inhibition, concentration dependence ([7]; Figure 3, 0.625-20 μg/ml): 呈剂量依赖性

Reference: patent CN114106008A, “一种从丹参中提取分离的二萜醌类化合物及其方法和应用” (Chengdu Push Bio Technology Co ltd, priority 2021, dated 2022)
